Results published in US20260216232A1, “SEVUPARIN FOR THE TREATMENT OF CHRONIC KIDNEY DISEASE” (Modus Therapeutics AB, priority 2022, published 2026).
Like-named read-outs stand apart in the source and are kept apart here. Marks after values point to notes of the source that are not given here.

Key:
mouse kidneys [1] = conditions: 3 weeks treatment, 20x magnification, compared to kidneys without sevuparin
Method: (§1) C57BL/6J male mice were exposed to ARD pretreatment for 9 weeks followed by 3 weeks of randomized allocation to treatments as defined below still with maintained ARD exposure. One group of mice was given normal diet (no ARD) for the entire experiment, as healthy control. • a) Treatment with control: mice treated with PBS s.c. every day for 3 weeks. • b) Treatment with sevuparin: mice treated with 10 mg/kg Sevuparin s.c. every day for 3 weeks.

[2] = tested on: Kidney Disease and Anemia of Kidney Disease (KD) Mouse Model
Source text: (§2) All experimental procedures were approved by the Animal Care and Use Committee of University of Brescia. All animals were maintained on normal diet (“Chow” or Standard diet, 4RF21, obtained from Mucedola s.r.l) if not specified otherwise as part of the “Anemia of Chronic Kidney Disease (CKD) mouse model” experiment as described below.
(§3) Animals. The C57BL/6J male mice were purchased from Envigo RMS S.r.l.
(§4) Kidney damage, kidney disease and anemia were induced by an adenine high phosphorus diet denoted as “adenine rich diet” (ARD) (0.2% Adenine; 0.9% Phosphorus; 0.6% Calcium; 20% Casein; Cod. S1102-E750 (purchased from Charles River, Manufacturer: Ssniff Spezialdiäten GmbH).
(§5) ARD was fed to C57BL/6J male mice having reached an age of five-weeks. […] All animals were maintained on ARD or normal diet (Standard diet, 4RF21, Mucedola s.r.l), at timings and extents described in detail for each experiment below. Groups of mice were also kept under normal diet (Standard diet) as healthy control group, for each experiment. Mice had access to food and diet ad libitum.
(§6) Adenine rich diet (ARD) (0.2% Adenine; 0.9% Phosphorus; 0.6% Calcium; 20% (Ssniff Spezialdiäten GmbH), sevuparin 10 mg/kg (Opocrin S.p.A., Apotek Produktion & Laboratorier AB, subcutaneously administered, sc), erythropoietin (EPO, Darbepoietin alfa, Aranesp, AMGEN INC.) intraperitoneally adminstered, ip)
(§7) The hematological parameters hemoglobin (Hb) and hematocrit (Ht) were analyzed using the Hemo Vet Instrument (Infratech) by collecting a single drop of blood from the dorsal pedal vein. The animals weight were monitored weekly in the morning at the following time points of treatment: At start of treatment (P0); after one week of treatment (T1); after two weeks of treatment (T2); after three weeks of treatment (T3); after four weeks of treatment (T4); after five weeks of treatment (T5); after six weeks of treatment (T6); after seven weeks of treatment (T7); after eight weeks of treatment (T8); and after nine weeks of treatment (T9).
(§8) Reticulocyte hemoglobin content (Ret-He), serum hepcidin and serum creatinine (analysis performed by Izler Institute) were analyzed at the end of each experiment)
(§9) Mice were sacrificed at the indicated time points and blood and kidneys were collected for analysis at the end-point of each experiment.
(§10) At the end-point, mouse serum hepcidin was quantified using ELISA kit (Cod. SKU #HMC-001; Intrinsic LifeScience).
(§11) Serum creatinine and blood Reticulocytes-hemoglobin (Ret-He) were analyzed by IZLER Institute (Istituto Zooprofilattico Sperimentale della Lombardia e Dell′Emilia Romagna), using standard procedures.
ARD Pretreatment for 9 Weeks Followed by 3 Weeks Treatment with Either Control or Sevuparin
as §1

factor IIa = conditions: definition of sevuparin; no test described; cited from earlier work
[3] = tested on: Kidney Disease and Anemia of Kidney Disease (KD) Mouse Model; test: Anemia of CKD mouse model (adenine rich diet), Example 3: blood and serum analysis, body weight; format: in vivo, C57BL/6J male mice
Source text: as §2, §3, §4, §5, §6, §7, §8, §9, §10, §11
ARD Pretreatment for 5.5 Weeks Followed by 3 or 6 Weeks Treatment with Control, Sevuparin, Erythropoietin (EPO), or a Combination of EPO and Sevuparin
C57BL/6J male mice were exposed to ARD pretreatment for 5.5 weeks followed by either 3 or 6 weeks of randomized allocation to treatments as defined below still with maintained ARD exposure. One group of mice was given normal diet (no ARD) for the entire experiment, as healthy control. • a) Treatment control: mice treated with PBS s.c. every day for 3 and 6 weeks respectively. • b) Treatment with sevuparin: mice treated with 10 mg/kg Sevuparin s.c. every day for 3 and 6 weeks respectively. • c) Treatment with EPO: mice treated with 50 IU EPO i.p. twice a week for 3 weeks and mice treated with 50 IU EPO i.p. twice a week for 3 weeks followed by treatment with 25 IU EPO i.p. once a week for the subsequent 3 weeks. • d) Treatment with EPO+sevuparin: mice treated with 10 mg/kg sevuparin s.c. every day and 50 IU EPO i.p. twice a week for 3 weeks and mice treated with 10 mg/kg sevuparin s.c. every day and 50 IU EPO i.p. twice a week for the first 3 weeks followed by treatment with 10 mg/kg sevuparin s.c. every day and 25 IU EPO i.p. once a week for the subsequent 3 weeks.

[4] = tested on: Kidney Disease and Anemia of Kidney Disease (KD) Mouse Model; test: Anemia of CKD mouse model (adenine rich diet), Example 2: blood and serum analysis, body weight; format: in vivo, C57BL/6J male mice
Source text: as §2, §3, §4, §5, §6, §7, §8, §9, §10, §11
ARD Pre-Treatment for 9 Weeks Followed by 2 Weeks Treatment with Either Control, Sevuparin, Erythropoietin (EPO) or a Combination of EPO and Sevuparin, Followed by 7 Weeks Recovery without ARD but with Maintained Treatments.
(§12) C57BL/6J male mice were exposed to ARD pretreatment for 9 weeks followed by 2 weeks of randomized allocation to treatments as defined below still with maintained ARD exposure, after which ARD was omitted but treatments were maintained during 7 weeks of recovery. One group of mice was given normal diet (no ARD) for the entire experiment, as healthy control. • a) Treatment with control: mice treated with PBS s.c. every day for 2+7 weeks. • b) Treatment with sevuparin: mice treated with 10 mg/kg Sevuparin s.c. every day for 2+7 weeks. • c) Treatment with […]: mice treated with 50 IU EPO i.p. twice a week for 2+7 weeks. • d) Treatment with EPO+sevuparin: mice treated with 50 IU EPO i.p. twice a week and 10 mg/kg Sevuparin s.c. every day for 2+7 weeks.
Hemoglobin (Hb), hematocrit (Ht), weigh (wt), serum-creatitine (S-crea), reticulocyte hemoglobin (Ret-He) content and serum-hepcidin (nM) was measured in the mice.

factor Xa = conditions: definition of sevuparin; no test described; cited from earlier work
mouse kidneys [5] = test: Example 2: macroscopic and histological status of kidneys (H&E, Sirius Red); format: in vivo, C57BL/6J male mice
Method: as §12

[6] = 3 weeks treatment, compared to mice not treated with sevuparin
[7] = ARD 9 weeks, then sevuparin 10 mg/kg s.c. every day for 3 weeks with maintained ARD, mean
[8] = ARD 5.5 weeks then treatment with maintained ARD
[9] = ARD 5.5 weeks, then 3 or 6 weeks treatment with maintained ARD (time point not given), sevuparin 10 mg/kg s.c. every day, EPO 50 IU i.p. twice a week (25 IU once a week for subsequent 3 weeks), mean
[10] = 2+7 weeks treatment, compared to mice without any treatment / other treatment groups
[11] = ARD 9 weeks, then 2 weeks treatment on ARD + 7 weeks without ARD, sevuparin 10 mg/kg s.c. every day, EPO 50 IU i.p. twice a week, mean

Question: Which “effect on the micrographs of the mouse kidneys (FIG. 1G)” value (mouse kidneys [1]) does the source give for sevuparin here?
Answer: The value was “positive effect”.

Question: What about the “Hematocrit levels, in words” value [2, 6] of the same substance?
Answer: The value was “increased”.

Question: And the “Hemoglobin blood levels, in words” value [2, 6]?
Answer: Its value is “increased”.

Question: What about the “blood level of reticulocyte-hemoglobin (Ret-He), in words” value [2, 6] of the same substance?
Answer: Its value is “increased”.

Question: And the “body weight, in words” value [2, 6]?
Answer: Its value is “gained body weight”.

Question: And the “serum creatinine level, in words” value [2, 6]?
Answer: The value was “increased”.

Question: What about the “serum level of hepcidin, in words” value [2, 6] of the same substance?
Answer: Its value is “reduced”.

Question: What about the S-Hepcidin ([2]; ARD 9 weeks, then sevuparin 10 mg/kg s.c. every day for 3 weeks with maintained ARD, ELISA, mean) of the same substance?
Answer: Its S-Hepcidin is 36.83^(18) nM.

Question: And the Hb [2, 7]?
Answer: The Hb was 10.80^(3) g/dL.

Question: And the Ht [2, 7]?
Answer: Its Ht is 31.67^(6) %.

Question: What about the Ret-He [2, 7] of the same substance?
Answer: The Ret-He was 14.33^(15) pg.

Question: And the S-Crea [2, 7]?
Answer: Its S-Crea is 0.73^(12) mg/dL.

Question: And the Wt [2, 7]?
Answer: Its Wt is 15.00^(9) g.

Question: What about the “antifactor 11a activity” value (factor IIa) of the same substance?
Answer: The value was “up to 10 IU/mg”.

Question: What about the “blood level of hemoglobin (Hb), in words” value [3, 8] of the same substance?
Answer: Its value is “did not increase”.

Question: And the “body weight (wt), in words” value [3, 8]?
Answer: Its value is “did not increase”.

Question: And the “hematocrit (Ht), in words” value [3, 8]?
Answer: Its value is “did not increase”.

Question: And the “serum level of creatinine (s-Crea), in words” value ([3]; ARD 5.5 weeks then treatment with maintained ARD, compared to mice without any treatment)?
Answer: The value was “reduced”.

Question: What about the Hb [3, 9] of the same substance?
Answer: Its Hb is 9.77^(3) g/dL.

Question: And the Ht [3, 9]?
Answer: Its Ht is 28.67^(8) %.

Question: And the Ret-He [3, 9]?
Answer: Its Ret-He is 14.45^(23)** pg.

Question: What about the S-Crea [3, 9] of the same substance?
Answer: Its S-Crea is 0.82^(18) mg/dL.

Question: And the Wt [3, 9]?
Answer: The Wt was 17.60^(13) g.

Question: And the “impact on the serum level of hepcidin (FIG. 3A)” value ([3]; at 3 weeks treatment)?
Answer: Its value is “beneficial impact”.

Question: And the “beneficial impact on the serum level of hepcidin vs control (FIG. 3B)” value ([3]; at 6 weeks treatment)?
Answer: Its value is “no longer present”.

Question: What about the “serum level of hepcidin, in words” value ([4]; 2+7 weeks treatment) of the same substance?
Answer: Its value is “markedly reduced”.

Question: And the “blood level of reticulocyte hemoglobin (Ret-HE), in words” value [4, 10]?
Answer: Its value is “increased”.

Question: What about the “body weight (wt), in words” value [4, 10] of the same substance?
Answer: Its value is “increased”.

Question: What about the “hematocrit (Ht), in words” value [4, 10] of the same substance?
Answer: Its value is “increased”.

Question: And the “serum level of creatinine (s-Crea), in words” value [4, 10]?
Answer: The value was “reduced”.

Question: What about the Hb [4, 11] of the same substance?
Answer: Its Hb is 9.45^(3) g/dL.

Question: What about the Ht [4, 11] of the same substance?
Answer: The Ht was 27.75^(8) %.

Question: What about the Ret-He [4, 11] of the same substance?
Answer: Its Ret-He is 15.78^(23) pg.

Question: What about the S-Crea [4, 11] of the same substance?
Answer: Its S-Crea is 0.78^(18) mg/dL.

Question: What about the S-Hepcidin [4, 11] of the same substance?
Answer: The S-Hepcidin was 22.32^(28) nM.

Question: What about the Wt [4, 11] of the same substance?
Answer: The Wt was 25.75^(13) g.

Question: What about the “antifactor Xa activity” value (factor Xa) of the same substance?
Answer: The value was “up to 10 IU/mg”.

Question: What about the “kidney damage, H&E staining (FIG. 2B)” value (mouse kidneys [5]; 40x magnification, 11 weeks of adenine diet, compared to the untreated control) of the same substance?
Answer: The value was “reduced the damage”.

Question: And the “collagen deposits (fibrosis), Sirius Red Staining (FIG. 2B)” value (mouse kidneys [5]; 40x magnification, compared to AD 11 weeks+PBS)?
Answer: Its value is “reduction of the collagen deposits”.

Question: And the “physical status of the mouse kidneys, macroscopic photographs (FIG. 2A)” value (mouse kidneys [5]; compared to mouse kidneys that had not received the same therapy)?
Answer: The value was “substantially less cysts, more normal colour and a more homogenous appearance”.
